“And” between values parts separate entries of the source, which are not always exact repeats. Equal entries are not always repeated. Where two headings read alike, the source gives them in different places.
Columns and labels:
[1] = test system: senescent LF1 human diploid fibroblasts (IFN-I and Aging gene sets); assay: RNA-seq / Gene Set Enrichment Analysis of senescent cultures; assay type: cell-based; settings: senescent cultures treated 1 month beginning at 3 months senescence
[2] = test system: senescent LF1 human diploid fibroblasts (IL6, IL1β, CCL2, IFNα, MMP3); assay: RT-qPCR of inflammatory markers in replicatively senescent fibroblasts; assay type: cell-based
[3] = test system: L1 retrotransposition; assay: HeLa dual-luciferase L1 retrotransposition assay; assay type: cell-based, human
[4] = test system: HeLa Tet-On cells; settings: human
[5] = test system: DNA fragmentation (comet tail length) in HeLa Tet-On cells expressing EN domain; assay: Neutral comet assay, EN domain-only constructs; assay type: cell-based, human
[6] = biological target: L1 EN (LINE-1 retrotransposon endonuclease domain) (Homo sapiens, UniProt O00370, N5T); assay: Fluorescent oligonucleotide EN nicking activity assay; assay type: biochemical
[7] = test system: L1-induced DNA damage in HeLa Tet-On cells (full-length L1); assay: γ-H2AX immunofluorescence assay, full-length L1 constructs; assay type: cell-based, human
[8] = test system: substrate oligonucleotide used in the EN activity assay; assay type: binding; set-up: key to Binding Detected? (Y/N): Binding Detected? (Y/N); Binding Detected? (Y/N)
[9] = biological target: T1, APE1 (Homo sapiens, UniProt P27695); assay: APE1 fluorescent oligonucleotide activity assay (abasic site substrate); assay type: biochemical; settings: for activity at 25 µM: read-out: APE1 activity (%)
T1 construct: purchased New England Biolabs (NEB) M0282S

[10] = read-out: EN activity, percent of no inhibitor control

Chain of L1 EN (LINE-1 retrotransposon endonuclease domain) (O00370 1-239 N5T): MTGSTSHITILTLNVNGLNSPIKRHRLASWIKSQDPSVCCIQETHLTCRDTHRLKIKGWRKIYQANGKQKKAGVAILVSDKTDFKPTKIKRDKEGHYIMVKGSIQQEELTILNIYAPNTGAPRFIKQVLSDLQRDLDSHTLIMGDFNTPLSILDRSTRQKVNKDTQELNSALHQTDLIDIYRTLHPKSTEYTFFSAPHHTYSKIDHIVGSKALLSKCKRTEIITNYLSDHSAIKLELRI

SMILES: Nc1ccn([C@@H]2CS[C@H](CO)O2)c(=O)n1 [3TC, Lamivudine, reference compound]
- Expression of IFN-I gene set and aging gene set (RNA-seq, GSEA) [1]: decreased expression
- MMP3 RT-qPCR, average (EP = 1) ([2]; 10 μM, senescent cells, SEN control 5.499, 3 replicates): 1.892
- IL1β RT-qPCR, average (EP = 1) ([2]; 10 μM, senescent cells, SEN control 8.256, 3 replicates): 10.61
- CCL2 RT-qPCR, average (EP = 1) ([2]; 10 μM, senescent cells, SEN control 8.589, 3 replicates): 4.199
- IFNα RT-qPCR, average (EP = 1) ([2]; 10 μM, senescent cells, SEN control 18.65, 3 replicates): 15.66
- IL6 RT-qPCR, average (EP = 1) ([2]; 10 μM, senescent cells, SEN control 22.45, 3 replicates): 13.65
- Luciferase (retrotransposition), average ([3]; Figure 4a Graph 1, 10 μM, 0 μM average 9.554): 1.753
- Luciferase (retrotransposition), replicates ([3]; Figure 4a Graph 1, 10 μM, Replicates 1-4, 0 μM average 9.554): 1.525 and 1.282 and 1.336 and 2.868
- Luciferase (retrotransposition), average ([3]; Figure 4a Graph 2, 10 μM, 0 μM average 9.679): 1.648
- Luciferase (retrotransposition), replicates ([3]; Figure 4a Graph 2, 10 μM, Replicates 1-4, 0 μM average 9.679): 2.547 and 1.556 and 1.337 and 1.153
- Luciferase (retrotransposition), average ([3]; Figure 4a Graph 3, 10μM, 0μM average 17.91): 3.723
- Luciferase (retrotransposition), replicates ([3]; Figure 4a Graph 3, 10μM, Replicates 1-4, 0μM average 17.91): 3.272 and 3.5538 and 3.891 and 4.176
- Luciferase (retrotransposition), average ([3]; Figure 4a Graph 4, 10μM, 0μM average 3.426): 0.6208
- Luciferase (retrotransposition), replicates ([3]; Figure 4a Graph 4, 10μM, Replicates 1-4, 0μM average 3.426): 0.3413 and 0.6639 and 1.079 and 0.3984
- Luciferase (retrotransposition), average ([3]; Figure 4a Graph 5, 10μM, 0μM average 4.537): 0.4847
- Luciferase (retrotransposition), replicates ([3]; Figure 4a Graph 5, 10μM, Replicates 1-4, 0μM average 4.537): 0.5984 and 0.4472 and 0.3986 and 0.4945

SMILES: C/C(C[C@H](c1ccccc1)c1c(O)c2ccccc2oc1=O)=N\Nc1ccc([N+](=O)[O-])cc1[N+](=O)[O-] [AD3]
- PrestoBlue (viability), average [4]: 15.41
- Nuclei comet tail length, average (WT = 1) [5]: 0.568
- EN activity, percent of no inhibitor control ([6]; 1 µM): 108.117% and 78.9256% and 93.3444%
- EN activity, percent of no inhibitor control ([6]; 5 µM): 93.5701% and 96.3453%
- EN activity, percent of no inhibitor control ([6]; 10 µM): 99.3729%
- EN activity, percent of no inhibitor control ([6]; 25 µM): 99.0637% and 102.756%
- EN activity, percent of no inhibitor control ([6]; 50 µM): 87.9685% and 80.8738% and 62.1552%
- EN activity, percent of no inhibitor control ([6]; 100 µM): 53.1232% and 37.4643% and 59.5468%
- EN activity, percent of no inhibitor control ([6]; 250 µM): 26.1232% and 25.9631%
- EN activity, percent of no inhibitor control ([6]; 500 µM): 1.104% and 2.0558% and 4.103%
- EN activity, percent of no inhibitor control ([6]; 1000 µM): 0.8695% and 0.8159%
- remaining activity at 5 µM [6, 10]: 89.6%
- remaining activity at 10 µM [6, 10]: 99.4%
- remaining activity at 25 µM [6, 10]: 95.7%
- remaining activity at 250 µM [6, 10]: 25.7%
- remaining activity at 1000 µM [6, 10]: 1.63%
- Inhibition of DNA damage, full-length L1 experiments [7]: best inhibition
- IL1β RT-qPCR, average (EP = 1) [2]: 4.703
- IL6 RT-qPCR, average (EP = 1) [2]: 6.462
- Inhibition of inflammation in senescent cells [2]: showed efficacy
- MMP3 RT-qPCR, average (EP = 1) [2]: 2.136
- Binding Detected? (Y/N) [8]: N
- Luciferase (retrotransposition), average [3]: 1.378
- Luciferase (retrotransposition), replicates [3]: 0.9116 and 1.591 and 1.485 and 1.524
- APE1 percent activity, Replicate 1 [9]: 92.838%
- APE1 percent activity, Replicate 3 [9]: 104.006%
- APE1 percent activity, average [9]: 103.516%
- Percent APE1 activity, average [9]: 95.58%
- Percent APE1 activity, replicates [9]: 101.896% and 94.978% and 89.8705%
- activity at 25 µM [9]: 104 ± 10.4%

SMILES: Nn1cnn2c(SCC(=O)Nc3nnc(SCC(=O)Nc4ccc(S(N)(=O)=O)cc4)s3)nnc12 [AD29]
- PrestoBlue (viability), average ([4]; 48 h, 50 μM): 15.21
- Nuclei comet tail length, average (WT = 1) ([5]; 50 μM inhibitor, EN domain-only construct, neutral comet assay, normalised to WT): 0.4772
- EN activity, percent of no inhibitor control ([6]; [Inhibitor] 0.5 μM, technical replicates 1-3, Fig. 2b source data, 0.5 µM): 96.7352% and 105.013%
- remaining activity at 0.5 µM ([6]; [Inhibitor] 0.5 μM, technical replicates 1-3, Fig. 2b source data, read-out: EN activity, percent of no inhibitor control): 97.3%
- EN activity, percent of no inhibitor control ([6]; [Inhibitor] 5 μM, technical replicates 1-3, Fig. 2b source data, 5 µM): 89.8647% and 119.947% and 95.1949%
- EN activity, percent of no inhibitor control ([6]; [Inhibitor] 10 μM, technical replicates 1-3, Fig. 2b source data, 10 µM): 90.2289% and 93.2039%
- remaining activity at 10 µM ([6]; [Inhibitor] 10 μM, technical replicates 1-3, Fig. 2b source data, read-out: EN activity, percent of no inhibitor control): 89.2%
- EN activity, percent of no inhibitor control ([6]; [Inhibitor] 25 μM, technical replicates 1-3, Fig. 2b source data, 25 µM): 63.7726% and 70.2623%
- remaining activity at 25 µM ([6]; [Inhibitor] 25 μM, technical replicates 1-3, Fig. 2b source data, read-out: EN activity, percent of no inhibitor control): 64.2%
- EN activity, percent of no inhibitor control ([6]; [Inhibitor] 50 μM, technical replicates 1-3, Fig. 2b source data, 50 µM): 34.0986% and 27.5313%
- remaining activity at 50 µM ([6]; [Inhibitor] 50 μM, technical replicates 1-3, Fig. 2b source data, read-out: EN activity, percent of no inhibitor control): 24.6%
- EN activity, percent of no inhibitor control ([6]; [Inhibitor] 100 μM, technical replicates 1-3, Fig. 2b source data, 100 µM): 8.595% and 8.689%
- remaining activity at 100 µM ([6]; [Inhibitor] 100 μM, technical replicates 1-3, Fig. 2b source data, read-out: EN activity, percent of no inhibitor control): 5.53%
- EN activity, percent of no inhibitor control ([6]; [Inhibitor] 250 μM, technical replicates 1-3, Fig. 2b source data, 250 µM): 1.937% and 2.743%
- remaining activity at 250 µM ([6]; [Inhibitor] 250 μM, technical replicates 1-3, Fig. 2b source data, read-out: EN activity, percent of no inhibitor control): 2.22%
- EN activity, percent of no inhibitor control ([6]; [Inhibitor] 500 μM, technical replicates 1-3, Fig. 2b source data, 500 µM): 1.591% and 1.804% and 0.7296%
- Binding Detected? (Y/N) [8]: N
- Luciferase (retrotransposition), average ([3]; Figure 4a Graph 4, 50μM, 0μM average 3.426): 2.638
- Luciferase (retrotransposition), replicates ([3]; Figure 4a Graph 4, 50μM, Replicates 1-4, 0μM average 3.426): 2.47 and 2.591 and 2.484 and 3.007
- APE1 percent activity, Replicate 1 ([9]; compound at 25 μM, Replicate 1): 83.829%
- APE1 percent activity, Replicate 2 ([9]; compound at 25 μM, Replicate 2): 79.0708%
- APE1 percent activity, Replicate 3 ([9]; compound at 25 μM, Replicate 3): 80.6497%
- APE1 percent activity, average ([9]; compound at 25 μM, average of 3 replicates): 81.1831%
- activity at 25 µM ([9]; inhibitors at 25 μM, relative to 0 μM inhibitor control, mean ± s.d., 3 independent experiments): 81.2 ± 2.4%

SMILES: O=C(NCCCCCCNC(=O)Nc1cccc([N+](=O)[O-])c1)Nc1cccc([N+](=O)[O-])c1 [AD32]
- PrestoBlue (viability), average [4]: 14.98
- Nuclei comet tail length, average (WT = 1) [5]: 0.6103
- EN activity, percent of no inhibitor control ([6]; 1 µM): 89.1778% and 95.2749%
- EN activity, percent of no inhibitor control ([6]; 5 µM): 106.426% and 105.894%
- EN activity, percent of no inhibitor control ([6]; 20 µM): 107.498% and 97.7763% and 80.1287%
- EN activity, percent of no inhibitor control ([6]; 50 µM): 115.028% and 130.021% and 99.6138%
- EN activity, percent of no inhibitor control ([6]; 100 µM): 108.576% and 99.1955%
- EN activity, percent of no inhibitor control ([6]; 250 µM): 76.4578% and 67.7464%
- EN activity, percent of no inhibitor control ([6]; 500 µM): 42.369% and 27.0684%
- EN activity, percent of no inhibitor control ([6]; 750 µM): 20.3358% and 21.9713%
- EN activity, percent of no inhibitor control ([6]; 1000 µM): 5.092% and 3.166% and 2.499%
- remaining activity at 1 µM [6, 10]: 93.7%
- remaining activity at 5 µM [6, 10]: 103%
- remaining activity at 100 µM [6, 10]: 106%
- remaining activity at 250 µM [6, 10]: 71.9%
- remaining activity at 500 µM [6, 10]: 46.5%
- remaining activity at 750 µM [6, 10]: 20.5%
- Binding Detected? (Y/N) [8]: N
- Effect on L1 retrotransposition [3]: some activity in the retrotransposition assay
- Luciferase (retrotransposition), average [3]: 1.01
- Luciferase (retrotransposition), replicates [3]: 1.2931 and 0.8621 and 0.8883 and 0.9964
- APE1 percent activity, Replicate 1 [9]: 105.807%
- APE1 percent activity, Replicate 2 [9]: 106.706%
- APE1 percent activity, Replicate 3 [9]: 111.118%
- APE1 percent activity, average [9]: 107.877%
- Percent APE1 activity, average [9]: 120.4%
- Percent APE1 activity, replicates [9]: 115.512% and 123.038% and 122.705%
- activity at 25 µM [9]: 108 ± 2.8%

Source: article PMC11078990, “Identification and characterization of small molecule inhibitors of the LINE-1 retrotransposon endonuclease” (Nature Communications, 2024)
